According to US12084473B2, “β-D-2′-deoxy-2′-α-fluoro-2′-β-C-substituted-2-modified-N6-substituted purine nucleotides for HCV treatment” (Atea Pharmaceuticals, Inc., priority 2015, dated 2024):
Read-outs that look alike come from different tables or passages of the source.

Key:
[1] = system: HCV genotype 1b luciferase reporter replicon; assay: microbe, parasite or virus in culture; type: cell-based; details: Hepatitis C virus, HuH-7-Luc/Neo-ET, 72 h, read-out: HCV Replicon EC50/EC95: EC50
[2] = system: HCV Genotype 4d, NS5B Mutation none; assay: microbe, parasite or virus in culture; type: cell-based
Description: (§1) Various patient-derived HCV genotypes containing wild-type and resistance-associated variants were used to determine their relative replication sensitivity to test compounds. Replicon resistance test vectors (RTVs) containing the NS5B genomic regions were prepared using viral RNA isolated from plasma of HCV patients. Each NS5B region was amplified by reverse-transcription polymerase chain reaction and cloned into an HCV replicon RTV which was then transferred by electroporation into Huh-7 cells.

[3] = system: HCV Genotype 1a, NS5B Mutation none; assay: microbe, parasite or virus in culture; type: cell-based
Description: as §1

[4] = system: HCV Genotype 4a, NS5B Mutation none; assay: microbe, parasite or virus in culture; type: cell-based
Description: as §1

[5] = system: HCV Genotype 3a-2, NS5B Mutation none; assay: microbe, parasite or virus in culture; type: cell-based
Description: as §1

[6] = system: HCV Genotype 2b, NS5B Mutation none; assay: microbe, parasite or virus in culture; type: cell-based
Description: as §1

[7] = system: HCV Genotype 1a, NS5B Mutation L159F; assay: microbe, parasite or virus in culture; type: cell-based
Description: as §1

[8] = system: HCV Genotype 1b, NS5B Mutation none; assay: microbe, parasite or virus in culture; type: cell-based
Description: as §1

[9] = system: HCV Genotype 2a, NS5B Mutation none; assay: microbe, parasite or virus in culture; type: cell-based
Description: as §1

[10] = system: HCV Genotype 3a-1, NS5B Mutation none; assay: microbe, parasite or virus in culture; type: cell-based
Description: as §1

[11] = system: HCV Genotype 1a, NS5B Mutation L159F and S282T; assay: microbe, parasite or virus in culture; type: cell-based
Description: as §1

[12] = system: HCV Genotype 1b, NS5B Mutation C316N; assay: microbe, parasite or virus in culture; type: cell-based
Description: as §1

HCV wild type replicon = assay: microbe, parasite or virus in culture; type: cell-based
Description: (§2) A transient transfection assay was performed to determine the sensitivity of the […] of HCV to test compounds. Huh-7 cells were electroporated in the presence of RNA transcribed from wild type or S282T HCV replicon plasmids from the T7 promoter. The transfected cells were seeded in to 96-well plates at 7.5×10^3 cells per well in Dulbecco's Modified Eagle's medium. After 24 hr of incubation, medium was removed and replaced with fresh medium containing no or various concentrations of test compounds. Following an additional 96-hr incubation, the anti-HCV activity was measured by luciferase endpoint with Britelite™ Plus luminescence reporter gene kit (Perkin Elmer, Shelton, CT). Duplicate plates were treated and incubated in parallel for assessment of cellular toxicity by staining with the tetrazolium dye XTT.

HCV S282T replicon = assay: microbe, parasite or virus in culture; type: cell-based
Description: as §2

[13] = Cytotoxicity by XTT staining in replicon cells; details: human
Description: (§3) The plates were cultured for 24 hours prior to the addition of compounds. Six serial one half log dilutions of the test articles (high test concentration of 100.0 μM or high test concentration of 1.0 μM) and human interferon-alpha2b (high test 10.0 U/ml) were prepared in cell culture medium and added to the cultured cells in triplicate wells for each dilution. Six wells in the test plates received medium alone as an untreated control. Following 72 hours of culture in the presence of compound, one of the plates was used for the determination of cytotoxicity by staining with XTT and the other for antiviral efficacy by determination of luciferase reporter activity. Cytotoxicity and efficacy data were collected and imported into a customized Excel workbook for determination of the TC50 and EC50 values. […] The y-axis is the percent of virus control and the x-axis is the concentration of drug in μM. […] The y-axis is the percent of virus control and the x-axis is the concentration of drug in M.

Huh-7 luc/neo ET cells = assay: Cytotoxicity by XTT staining in replicon cells
Description: as §3

[14] = system: HCV genotype 1b luciferase reporter replicon; assay: microbe, parasite or virus in culture; type: cell-based
Description: as §3

[15] = Hepatitis C virus, 96 h, read-out: IC50 Value
[16] = Hepatitis C virus, read-out: IC50 Value
[17] = genotype 3a-2, no NS5B mutation
[18] = genotype 3a-1, no NS5B mutation
[19] = genotype 1a, NS5B L159F and S282T

## CC(C)OC(=O)[C@H](C)N[P@](=O)(OCC1O[C@@H](n2cnc3c(N(C)C)nc(N)nc32)[C@](C)(F)[C@@H]1O)Oc1ccccc1 (stereo partly drawn) [Compound 25, isopropyl ((((S)-(2R,3R,4R,5R)-5-(2-amino-6-(dimethylamino)-9H-purin-9-yl)-4-fluoro-3-hydroxy-4-methyltetrahydrofuran-2-yl)methoxy)-phenoxy-phosphoryl)-L-alaninate]
[1]
  EC50: 4 nM
[2]; [15]
  IC50: 5.9 nM
[2]; genotype 4d, no NS5B mutation
  Fold Change in IC50 from Sofosbuvir: 16.0
  Fold Change in IC95 from Sofosbuvir: 23.1
  IC95 Value: 44.2 nM
[3]; [16]
  IC50: 4.4 nM
[3]; genotype 1a, no NS5B mutation
  Fold Change in IC50 from Sofosbuvir: 14.2
  Fold Change in IC95 from Sofosbuvir: 16.2
  IC95 Value: 31.3 nM
[4]; [16]
  IC50: 4.6 nM
[4]; genotype 4a, no NS5B mutation
  Fold Change in IC50 from Sofosbuvir: 16.2
  Fold Change in IC95 from Sofosbuvir: 20.7
  IC95 Value: 33.0 nM
[5]; [16]
  IC50: 4.7 nM
[5]; [17]
  Fold Change in IC50 from Sofosbuvir: 26.3
  Fold Change in IC95 from Sofosbuvir: 33.4
  IC95 Value: 24.2 nM
[6]; [16]
  IC50: 3 nM
[6]; genotype 2b, no NS5B mutation
  Fold Change in IC50 from Sofosbuvir: 15.2
  Fold Change in IC95 from Sofosbuvir: 19.9
  IC95 Value: 14.9 nM
[7]
  cross-resistance to L159F mutant: neither 25, 27 nor 5-2 compound showed any evidence of cross-resistance
[7]; [16]
  IC50: 5.2 nM
[7]; genotype 1a, NS5B L159F
  Fold Change in IC50 from Sofosbuvir: 22.0
  Fold Change in IC95 from Sofosbuvir: 26.4
  IC95 Value: 40.4 nM
[8]; [16]
  IC50: 5.9 nM
[8]; genotype 1b, no NS5B mutation
  Fold Change in IC50 from Sofosbuvir: 1.0
  Fold Change in IC95 from Sofosbuvir: 20.0
  IC95 Value: 32.0 nM
[9]; [16]
  IC50: 2.7 nM
[9]; genotype 2a, no NS5B mutation
  Fold Change in IC50 from Sofosbuvir: 8.4
  Fold Change in IC95 from Sofosbuvir: 8.8
  IC95 Value: 22.2 nM
[10]; [16]
  IC50: 5.1 nM
[10]; [18]
  Fold Change in IC50 from Sofosbuvir: 24.5
  Fold Change in IC95 from Sofosbuvir: 24.8
  IC95 Value: 27.8 nM
[11]
  cross-resistance to L159F and S282T mutant: neither 25, 27 nor 5-2 compound showed any evidence of cross-resistance
[11]; [16]
  IC50: 17.2 nM
[11]; [19]
  Fold Change in IC50 from Sofosbuvir: 94.0
  Fold Change in IC95 from Sofosbuvir: 107.0
  IC95 Value: 158.5 nM
[12]
  cross-resistance to C316N mutant: neither 25, 27 nor 5-2 compound showed any evidence of cross-resistance
[12]; [16]
  IC50: 3.2 nM
[12]; genotype 1b, NS5B C316N
  Fold Change in IC50 from Sofosbuvir: 23.1
  Fold Change in IC95 from Sofosbuvir: 26.2
  IC95 Value: 18.1 nM
HCV wild type replicon
  IC95 Value: 2.7 nM
HCV wild type replicon; [15]
  IC50: < 1 nM
HCV wild type replicon; NS5B Mutation None
  Fold Change in IC50 from Sofosbuvir: >36.4
  Fold Change in IC95 from Sofosbuvir: 80.7
HCV S282T replicon
  cross-resistance to S282T variant: neither 25, 27, nor 5-2 compounds showed any evidence of cross-resistance
HCV S282T replicon; [15]
  IC50: < 1 nM
HCV S282T replicon; NS5B Mutation S282T
  Fold Change in IC50 from Sofosbuvir: >278
  Fold Change in IC95 from Sofosbuvir: >106.4
HCV S282T replicon; NS5B Mutation S282T, transient assay, 96-hr
  IC95 Value: 9.4 nM
[13]
  CC50 at 72 h: > 100000 nM
Huh-7 luc/neo ET cells; read-out: HCV Replicon CC50, XTT, 72 hours
  CC50: > 100000 nM
Huh-7 luc/neo ET cells; read-out: TC50, FIG. 3 legend
  CC50: > 100000 nM
[14]
  fold increase in activity (versus parent nucleoside): ≥ 2,600
[14]; Hepatitis C virus, Huh-7 luc/neo ET cells, 72 hours, luciferase, read-out: HCV Replicon EC50/EC95: EC95
  EC95: 19 nM
[14]; Hepatitis C virus, read-out: EC50 in a replicon assay
  EC50: 4 nM
[14]; Table 7
  Fold increase in activity compared to parent nucleoside: >2,600
